Results taken from patent US20250034135A1, “ANTI-APOPTOTIC PROTEIN BCL-2 INHIBITOR, PHARMACEUTICAL COMPOSITION AND USES THEREOF” (HANGZHOU HEALZEN THERAPEUTICS CO., LTD., priority 2021, published 2025).

Each compound was assayed against BCL2 (Homo sapiens (Human), UniProt P10415) (assay: Molecular level activity test of anti-apoptotic protein BCL2 (HTRF, binding to Bim peptide)). Conditions: HTRF, binding of BCL2 to Bim peptide; read-out: BCL2 nM (inhibitory activity, IC50).
Protocol: The detection of the binding ability between anti-apoptotic protein BCL2 and pro-apoptotic protein Bim was performed using Homogeneous Time-Resolved Fluorescence technology. The reaction of this method occurred in a white shallow 384-well plate, with a total reaction volume of 10 μL. Specifically, it included 2 μL of the compound to be tested (2% DMSO), 4 μL His-tagged recombinant protein, and 4 μL Biotin-tagged BIM protein peptide. After 1 hour of reaction, 5 μL of each Anti-His and streptavidin-tagged XL665 antibody diluents diluted with a detection buffer were added. After incubating at room temperature for 4 hours, the values were read using the Envision multifunctional microplate reader to detect the effect of the compound to be tested on the binding ability of BCL2 to Bim protein peptides.

Sequence of BCL2 (P10415 whole entry): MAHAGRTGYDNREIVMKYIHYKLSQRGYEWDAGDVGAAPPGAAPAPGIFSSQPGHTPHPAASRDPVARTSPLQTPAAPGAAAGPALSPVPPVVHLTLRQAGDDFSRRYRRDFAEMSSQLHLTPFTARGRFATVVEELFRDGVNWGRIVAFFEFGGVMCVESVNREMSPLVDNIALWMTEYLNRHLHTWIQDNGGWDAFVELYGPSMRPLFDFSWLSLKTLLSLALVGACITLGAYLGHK

Row | SMILES | IC50
1 | COc1ccc(CN2CCN(C3CC4(CCN(c5cc(Oc6cnc7[nH]ccc7c6)c(C(=O)NS(=O)(=O)c6cc([N+](=O)[O-])c(NCC7(F)CCOCC7)c7c6ncc(=O)n7C)cc5F)CC4)C3)[C@H](c3ccccc3C(C)C)C2)cc1 | < 10 nM
2 | CC(C)c1ccccc1[C@@H]1CCCN1C1CC2(CCN(c3ccc(C(=O)NS(=O)(=O)c4cc([N+](=O)[O-])c(NC[C@H]5CC[C@](C)(O)CC5)c5[nH]ccc45)c(Oc4cnc5[nH]ccc5c4)c3)CC2)C1 [compound 009, 2-((1H-pyrrolo[2,3-b]pyrid-5-yl)oxy)-N-((7-((((1r,4r)-4-hydroxy-4-methylcyclohexyl)methyl)amino)-6-nitro-1H-indol-4-yl)sulfonyl)-4-(2-((S)-2-(2-isopropylphenyl)pyrrolidin-1-yl)-7-azaspiro[3.5]non-7-yl)benzamide] | < 10 nM
3 | CC(C)c1ccccc1[C@@H]1CCCN1C1CC2(CCN(c3ccc(C(=O)NS(=O)(=O)c4cc([N+](=O)[O-])c(NCC5(F)CCN(C(C)C)CC5)c5[nH]ccc45)c(Oc4cnc5[nH]ccc5c4)c3)CC2)C1 [compound 010, (S)-2-((1H-pyrrolo[2,3-b]pyrid-5-yl)oxy)-N-((7-(((4-fluoro-1-isopropylpiperid-4-yl)methyl)amino)-6-nitro-1H-indol-4-yl)sulfonyl)-4-(2-(2-(2-isopropylphenyl)pyrrolidin-1-yl)-7-azaspiro[3.5]non-7-yl)benzamide] | < 10 nM
4 | CC(C)c1ccccc1[C@@H]1CCCN1C1CC2(CCN(c3ccc(C(=O)NS(=O)(=O)c4cc([N+](=O)[O-])c(NC[C@H]5CC[C@](C)(O)CC5)c5[nH]cnc45)c(Oc4cnc5[nH]cc(F)c5c4)c3)CC2)C1 [compound 011, 2-((3-fluoro-1H-pyrrolo[2,3-b]pyrid-5-yl)oxy)-N-((7-((((1r,4r)-4-hydroxy-4-methylcyclohexyl)methyl)amino)-6-nitro-1H-benzo[d]imidazol-4-yl)sulfonyl)-4-(2-((S)-2-(2-isopropylphenyl)pyrrolidin-1-yl)-7-azaspiro[3.5]non-7-yl)benzamide] | < 10 nM
5 | CC(C)c1ccccc1[C@@H]1CCCN1C1CC2(CCN(c3cc(Oc4cnc5[nH]ccc5c4)c(C(=O)NS(=O)(=O)c4cc([N+](=O)[O-])c(NC[C@H]5CC[C@](C)(O)CC5)c5[nH]cnc45)cc3F)CC2)C1 [compound 014, 2-((1H-pyrrolo[2,3-b]pyrid-5-yl)oxy)-5-fluoro-N-((7-((((1r,4r)-4-hydroxy-4-methylcyclohexyl)methyl)amino)-6-nitro-1H-benzo[d]imidazol-4-yl)sulfonyl)-4-(2-((S)-2-(2-isopropylphenyl)pyrrolidin-1-yl)-7-azaspiro[3.5]non-7-yl)benzamide] | < 10 nM
6 | CC(C)c1ccccc1[C@@H]1CCCN1C1CC2(CCN(c3cc(Oc4cnc5[nH]ccc5c4)c(C(=O)NS(=O)(=O)c4cc([N+](=O)[O-])c(NCC5CCC(O)CC5)c5[nH]cnc45)cc3F)CC2)C1 (stereo partly drawn) [compound 016] | < 10 nM
7 | CC(C)c1ccccc1[C@@H]1CCCN1C1CC2(CCN(c3cc(Oc4cnc5[nH]ccc5c4)c(C(=O)NS(=O)(=O)c4cc([N+](=O)[O-])c(NC[C@H]5C[C@@](C)(O)C5)c5[nH]cnc45)cn3)CC2)C1 [compound 017, 4-((1H-pyrrolo[2,3-b]pyrid-5-yl)oxy)-N-((7-((((1S,3S)-3-hydroxy-3-methylcyclobutyl)methyl)amino)-6-nitro-1H-benzo[d]imidazol-4-yl)sulfonyl)-6-(2-((S)-2-(2-isopropylphenyl)pyrrolidin-1-yl)-7-azaspiro[3.5]non-7-yl) nicotinamide] | < 10 nM
8 | CC(C)c1ccccc1[C@@H]1CCCN1C1CC2(CCN(c3cc(Oc4cnc5[nH]ccc5c4)c(C(=O)NS(=O)(=O)c4cc([N+](=O)[O-])c(NC[C@H]5C[C@@](C)(O)C5)c5[nH]cnc45)cc3F)CC2)C1 [compound 018, 2-((1H-pyrrolo[2,3-b]pyrid-5-yl)oxy)-5-fluoro-N-((7-((((1S,3S)-3-hydroxy-3-methylcyclobutyl)methyl)amino)-6-nitro-1H-benzo[d]imidazol-4-yl)sulfonyl)-4-(2-((S)-2-(2-isopropylphenyl)pyrrolidin-1-yl)-7-azaspiro[3.5]non-7-yl)benzamide] | < 10 nM
9 | CC(C)c1ccccc1[C@@H]1CCCN1C1CC2(CCN(c3cc(Oc4cnc5[nH]ccc5c4)c(C(=O)NS(=O)(=O)c4cc([N+](=O)[O-])c(NCC5(F)CCN(C(C)C)CC5)c5[nH]cnc45)cn3)CC2)C1 [compound 021, (S)-4-((1H-pyrrolo[2,3-b]pyrid-5-yl)oxy)-N-((7-(((4-fluoro-1-isopropylpiperid-4-yl)methyl)amino)-6-nitro-1H-benzo[d]imidazol-4-yl)sulfonyl)-6-(2-(2-(2-isopropylphenyl)pyrrolidin-1-yl)-7-azaspiro[3.5]non-7-yl) nicotinamide] | < 10 nM
10 | CC(C)c1ccccc1[C@@H]1CCCN1C1CC2(CCN(c3cc(Oc4cnc5[nH]ccc5c4)c(C(=O)NS(=O)(=O)c4cc([N+](=O)[O-])c(NCC5(F)CCN(C(C)C)CC5)c5[nH]cnc45)cc3F)CC2)C1 [compound 022, (S)-2-((1H-pyrrolo[2,3-b]pyrid-5-yl)oxy)-5-fluoro-N-((7-(((4-fluoro-1-isopropylpiperid-4-yl)methyl)amino)-6-nitro-1H-benzo[d]imidazol-4-yl)sulfonyl)-4-(2-(2-(2-isopropylphenyl)pyrrolidin-1-yl)-7-azaspiro[3.5]non-7-yl)benzamide] | < 10 nM
11 | CC(C)c1ccccc1[C@@H]1CCCN1C1CC2(CCN(c3cc(Oc4cnc5[nH]ccc5c4)c(C(=O)NS(=O)(=O)c4cc([N+](=O)[O-])c(NCC5(F)CCN(C6CCOCC6)CC5)c5[nH]cnc45)cn3)CC2)C1 [compound 023] | < 10 nM

The next lines start with the values.

Row | IC50 | SMILES
12 | < 10 nM | CC(C)c1ccccc1[C@@H]1CCCN1C1CC2(CCN(c3cc(Oc4cnc5[nH]ccc5c4)c(C(=O)NS(=O)(=O)c4cc([N+](=O)[O-])c(NCC5(F)CCN(C6CCOCC6)CC5)c5[nH]cnc45)cc3F)CC2)C1 [compound 024, (S)-2-((1H-pyrrolo[2,3-b]pyrid-5-yl)oxy)-5-fluoro-N-((7-(((4-fluoro-1-(tetrahydro-2H-pyran-4-yl)piperid-4-yl)methyl)amino)-6-nitro-1H-benzo[d]imidazol-4-yl)sulfonyl)-4-(2-(2-(2-isopropylphenyl)pyrrolidin-1-yl)-7-azaspiro[3.5]non-7-yl)benzamide]
13 | < 10 nM | CC(C)c1ccccc1[C@@H]1CCCN1C1CC2(CCN(c3cc(Oc4cnc5[nH]ccc5c4)c(C(=O)NS(=O)(=O)c4cc([N+](=O)[O-])c(NCC5(F)CCN(CC(C)(C)C)CC5)c5[nH]cnc45)cn3)CC2)C1 [compound 025, (S)-4-((1H-pyrrolo[2,3-b]pyrid-5-yl)oxy)-N-((7-(((4-fluoro-1-neopentylpiperid-4-yl)methyl)amino)-6-nitro-1H-benzo[d]imidazol-4-yl)sulfonyl)-6-(2-(2-(2-isopropylphenyl)pyrrolidin-1-yl)-7-azaspiro[3.5]non-7-yl) nicotinamide]
14 | < 10 nM | CC(C)c1ccccc1[C@@H]1CCCN1C1CC2(CCN(c3cc(Oc4cnc5[nH]ccc5c4)c(C(=O)NS(=O)(=O)c4cc([N+](=O)[O-])c(NCC5(F)CCN(CC(C)(C)C)CC5)c5[nH]cnc45)cc3F)CC2)C1 [compound 026]
15 | < 10 nM | CC(=O)N1CCC(F)(CNc2c([N+](=O)[O-])cc(S(=O)(=O)NC(=O)c3cnc(N4CCC5(CC4)CC(N4CCC[C@H]4c4ccccc4C(C)C)C5)cc3Oc3cnc4[nH]ccc4c3)c3nc[nH]c23)CC1 [compound 027, (S)-4-((1H-pyrrolo[2,3-b]pyrid-5-yl)oxy)-N-((7-(((1-acetyl-4-fluoropiperid-4-yl)methyl)amino)-6-nitro-1H-benzo[d]imidazol-4-yl)sulfonyl)-6-(2-(2-(2-isopropylphenyl)pyrrolidin-1-yl)-7-azaspiro[3.5]non-7-yl) nicotinamide]
16 | < 10 nM | CC(=O)N1CCC(F)(CNc2c([N+](=O)[O-])cc(S(=O)(=O)NC(=O)c3cc(F)c(N4CCC5(CC4)CC(N4CCC[C@H]4c4ccccc4C(C)C)C5)cc3Oc3cnc4[nH]ccc4c3)c3nc[nH]c23)CC1 [compound 028, (S)-2-((1H-pyrrolo[2,3-b]pyrid-5-yl)oxy)-N-((7-(((1-acetyl-4-fluoropiperid-4-yl)methyl)amino)-6-nitro-1H-benzo[d]imidazol-4-yl)sulfonyl)-5-fluoro-4-(2-(2-(2-isopropylphenyl)pyrrolidin-1-yl)-7-azaspiro[3.5]non-7-yl)benzamide]
17 | < 10 nM | CC(C)c1ccccc1[C@@H]1CCCN1C1CC2(CCN(c3cc(Oc4cnc5[nH]ccc5c4)c(C(=O)NS(=O)(=O)c4cc([N+](=O)[O-])c(NCC5(F)CCN(C(=O)CN(C)C)CC5)c5[nH]cnc45)cn3)CC2)C1 [compound 029, (S)-4-((1H-pyrrolo[2,3-b]pyrid-5-yl)oxy)-N-((7-(((1-(dimethylglycyl)-4-fluoropiperid-4-yl)methyl)amino)-6-nitro-1H-benzo[d]imidazol-4-yl)sulfonyl)-6-(2-(2-(2-isopropylphenyl)pyrrolidin-1-yl)-7-azaspiro[3.5]non-7-yl) nicotinamide]
18 | < 10 nM | CC(C)c1ccccc1[C@@H]1CCCN1C1CC2(CCN(c3cc(Oc4cnc5[nH]ccc5c4)c(C(=O)NS(=O)(=O)c4cc([N+](=O)[O-])c(NCC5(F)CCN(C(=O)CN(C)C)CC5)c5[nH]cnc45)cc3F)CC2)C1 [compound 030, (S)-2-((1H-pyrrolo[2,3-b]pyrid-5-yl)oxy)-N-((7-(((1-(dimethylglycyl)-4-fluoropiperid-4-yl)methyl)amino)-6-nitro-1H-benzo[d]imidazol-4-yl)sulfonyl)-5-fluoro-4-(2-(2-(2-isopropylphenyl)pyrrolidin-1-yl)-7-azaspiro[3.5]non-7-yl)benzamide]
